Some results are limits rather than exact numbers.

From patent US20240299559A1, “COMPOUNDS THAT MEDIATE PROTEIN DEGRADATION AND METHODS OF USE THEREOF” (Monte Rosa Therapeutics, Inc., priority 2021, published 2024) come the findings set out here.

The target of one test is CRBN-DDB1 (Homo sapiens, UniProt Q96SW2). In words: Compound binding to CRBN by HTRF assay. As to conditions: CRBN-DDB1 2.5 nM, Cy5-Thalidomide 100 nM probe; Ki from geometric mean of IC50 by Cheng-Prustoff transformation. As to the method: Compound activity was monitored in a Homogenous Time-Resolved Fluorescence (HTRF) assay using 1-[5-({2-[2-(2-{[2-(2,6-dioxopiperidin-3-yl)-1,3-dioxo-2,3-dihydro-1H-isoindol-4-yl]oxy}acetamido)ethoxy]ethyl}carbamoyl)pentyl]-3,3-dimethyl-2-[(1E,3E)-5-[(2E)-1,3,3-trimethyl-5-sulfo-2,3-dihydro-1H-indol-2-ylidene]penta-1,3-dien-1-yl]-3H-indol-1-ium-5-sulfonate as a fluorescent probe. Biochemical assays were conducted in Greiner white 384 well HiBase plates (Cat. No 784075-25) in 10 μL total volume. A one pot detection solution of CRBN-DDB1 (2.5 nM), Anti-His Terbium Cryptate Gold (1×, PerkinElmer Cat. #: 61HI2TLB), and Cy5-Thalidomide (100 nM, Tenova Cat.: T52461) was prepared in 20 mM HEPES, 20 mM NaCl, 0.2 mM TCEP, 0.2 mM EDTA, and 0.005% Tween20 was dispensed to each assay plate. Compounds were stored in dry, ambient temperatures at 10 mM. A 10-point, 1:3 dilution series was prepared from 10 mM stock concentrations in Echo-compatible LDV plates. 10 nL of each compound dilution series was dispensed into assays wells using an Echo 650 (Labcyte inc. USA). 10 nL of 10 mM Lenalidomide was transferred into the active-control wells for the assay and 10 nL of DMSO was transferred into the neutral-control wells. The assay was then allowed to incubate for 30 min at ambient temperature after transferring compound. Plate measurements were taken on a Pherastar FSX (BMG Labtech, Germany) using the HTRF Red filter (Ex. 337 nm, em1:620 nm, em2:665 nm) (Flashes: 50, Integration time: 60-400 us, Z-height: 10 mm, Ratio-multipler: 10,000). The HTRF signal was then subsequently normalized to the neutral and active controls. Analysis and IC50 values were derived using KNIME analytics (KNIME Zurich) transformation and fitting within Collaborative Drug Discovery (Collaborative Drug Discovery USA). Ki was derived from the geometric mean of the IC50 values using the Cheng-Prustoff transformation.

Another test deals with T1, CDK2 (Homo sapiens, UniProt P24941).
T1 construct: HEK293 clonal lines with CRISPR KI HiBiT tag on CDK2 proteins; host or cells: HEK293 clonal line with CRISPR knock-in HiBiT on CDK2, stably expressing LgBiT
In words: CDK2 HiBiT assay (degradation, Dmax). As to conditions: HEK293 clonal lines with CRISPR KI HiBiT tag on CDK2, stably expressing LgBiT; 24 hours incubation. Format: cell-based. Here is the method: HEK293 clonal lines with CRISPR KI HiBiT tag on CDK2 proteins and stably expressing LgBiT protein were obtained from Promega (Madison, WI). Cells were plated at 5000 cells per well using Multiflo (BioTek) in 384-well white solid bottom plates (Corning, 3570BC) in 25 ul volume in DMEM media (DMEM, high glucose, HEPES, no phenol red (ThermoFisher Scientific, 21063029)) containing 10% FBS (Corning, 35-075-CV), 1% Penicillin/Streptomycin (ThermoFisher Scientific, 15140-122). Cells were incubated for 16 hours at 37° C., 5% CO2. 75 nL of a compound at 30 μM were dosed into the plate using an Echo® 650 liquid handler (Labcyte). Cells were incubated at 37° C., 5% CO2 for 24 hours. 5 ul of HiBiT Lysis Reagent (Promega, N3030) is added using Combi Multidrop (ThermoFisher Scientific), plates are incubated for 15′ at 37° C., 5% CO2 and then signal was read on a Pherastar FSX using “LUM plus” optic module.
Analysis was performed in Scinamic (Scinamic, Cambridge, MA). Luminescence response (R) was calculated by the formula: response=100*(S−N)/(P−N) where S is the signal of the well, N and P the mean negative and positive control values respectively of the same plate. The luminescence response was then fitted in Scinamic using a 3-parameter agonist logistic fit (hillslope=1, EC50>0, top/bottom unconstrained).

CRBN-DDB1, sequence (Q96SW2 whole entry): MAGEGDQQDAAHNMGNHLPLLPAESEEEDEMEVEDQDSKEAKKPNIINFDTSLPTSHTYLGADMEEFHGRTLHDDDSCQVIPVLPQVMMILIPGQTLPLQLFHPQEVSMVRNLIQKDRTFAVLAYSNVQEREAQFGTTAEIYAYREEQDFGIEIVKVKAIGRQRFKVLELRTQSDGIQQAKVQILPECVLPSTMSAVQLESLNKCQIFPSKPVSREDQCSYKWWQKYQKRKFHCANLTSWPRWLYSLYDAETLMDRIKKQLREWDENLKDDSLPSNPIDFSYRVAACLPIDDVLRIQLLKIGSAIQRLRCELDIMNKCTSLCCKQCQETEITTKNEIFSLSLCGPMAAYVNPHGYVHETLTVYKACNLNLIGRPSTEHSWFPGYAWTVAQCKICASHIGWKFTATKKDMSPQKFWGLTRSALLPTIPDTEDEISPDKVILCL
CRBN-DDB1, sequence (Q16531 whole entry partner): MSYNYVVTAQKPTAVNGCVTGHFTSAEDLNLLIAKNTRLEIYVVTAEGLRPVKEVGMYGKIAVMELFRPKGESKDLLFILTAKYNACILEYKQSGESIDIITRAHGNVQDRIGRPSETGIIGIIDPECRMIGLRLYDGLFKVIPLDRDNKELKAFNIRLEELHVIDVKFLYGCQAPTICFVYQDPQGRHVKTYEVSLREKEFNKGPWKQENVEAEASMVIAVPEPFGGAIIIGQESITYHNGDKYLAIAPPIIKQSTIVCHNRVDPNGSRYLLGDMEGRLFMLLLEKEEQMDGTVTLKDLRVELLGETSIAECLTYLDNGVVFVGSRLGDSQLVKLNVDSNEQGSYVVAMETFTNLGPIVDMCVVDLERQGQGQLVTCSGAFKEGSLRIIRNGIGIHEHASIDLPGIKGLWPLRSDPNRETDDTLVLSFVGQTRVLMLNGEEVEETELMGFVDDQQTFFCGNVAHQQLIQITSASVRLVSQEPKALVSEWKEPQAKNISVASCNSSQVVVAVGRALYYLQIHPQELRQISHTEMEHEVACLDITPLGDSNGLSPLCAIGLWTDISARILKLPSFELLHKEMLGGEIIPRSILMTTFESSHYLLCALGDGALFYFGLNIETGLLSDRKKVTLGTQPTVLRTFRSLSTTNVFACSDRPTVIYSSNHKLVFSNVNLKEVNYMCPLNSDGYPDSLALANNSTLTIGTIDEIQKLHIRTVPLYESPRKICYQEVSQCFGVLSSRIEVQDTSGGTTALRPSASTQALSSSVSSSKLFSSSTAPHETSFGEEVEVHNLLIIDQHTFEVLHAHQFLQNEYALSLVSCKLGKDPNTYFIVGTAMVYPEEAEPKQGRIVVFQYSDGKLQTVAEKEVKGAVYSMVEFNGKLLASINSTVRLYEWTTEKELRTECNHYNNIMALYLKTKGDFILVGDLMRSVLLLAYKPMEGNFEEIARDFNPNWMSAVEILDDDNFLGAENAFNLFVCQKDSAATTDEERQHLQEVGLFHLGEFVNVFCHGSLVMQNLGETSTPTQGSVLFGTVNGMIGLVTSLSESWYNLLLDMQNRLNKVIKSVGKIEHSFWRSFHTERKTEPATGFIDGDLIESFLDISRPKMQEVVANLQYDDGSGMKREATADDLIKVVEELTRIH

Usually Ki stands for the dissociation constant of the complex between target and ligand, obtained from inhibition or displacement. The Dmax is the largest share of the target that was removed. A low value points to a partial loss of target. In turn, `O=C1CCC(N2Cc3ccc(CCNC(=O)OCc4ccc(OC5CCOCC5)nc4)cc3C2=O)C(=O)N1` (stereo not shown) [Compound 1, (6-((tetrahydro-2H-pyran-4-yl)oxy)pyridin-3-yl)methyl (2-(2-(2,6-dioxopiperidin-3-yl)-3-oxoisoindolin-5-yl)ethyl)carbamate] displayed a Ki at CRBN-DDB1 of 100 to 1000 nM. At CDK2, this compound yielded a maximal degradation (Dmax) of 10 to 50%.
For `O=C1CCC(N2Cc3ccc(COC(=O)NCc4ccc(OC5CCOCC5)nc4)cc3C2=O)C(=O)N1` (stereo not shown) [Compound 2, (2-(2,6-dioxopiperidin-3-yl)-3-oxoisoindolin-5-yl)methyl((6-((tetrahydro-2H-pyran-4-yl)oxy)pyridin-3-yl)methyl)carbamate], in that order: 100 to 1000 nM and 10 to 50%.
For `O=C1CCC(N2Cc3ccc(CNC(=O)OCc4ccc(OC5CCOCC5)cc4)cc3C2=O)C(=O)N1` (stereo not shown) [Compound 3, 4-((tetrahydro-2H-pyran-4-yl)oxy)benzyl((2-(2,6-dioxopiperidin-3-yl)-3-oxoisoindolin-5-yl)methyl)carbamate], in that order: 100 to 1000 nM and 10 to 50%.
For `O=C1CCC(N2Cc3ccc(CNC(=O)OCc4cccc(-c5ccc(F)cc5)n4)cc3C2=O)C(=O)N1` (stereo not shown) [Compound 4, (6-(4-fluorophenyl)pyridin-2-yl)methyl((2-(2,6-dioxopiperidin-3-yl)-3-oxoisoindolin-5-yl)methyl)carbamate], in that order: 100 to 1000 nM and 10 to 50%.
At CRBN-DDB1, `O=C1CCC(N2Cc3ccc(CNC(=O)OCc4ccnc(-c5ccc(F)cc5)c4)cc3C2=O)C(=O)N1` (stereo not shown) [Compound 5, (2-(4-fluorophenyl)pyridin-4-yl)methyl((2-(2,6-dioxopiperidin-3-yl)-3-oxoisoindolin-5-yl)methyl)carbamate] came in with an inhibition constant Ki of 100 to 1000 nM. Moreover, the greatest degradation seen (Dmax) on CDK2 was 10 to 50%.
For `O=C1CCC(N2Cc3ccc(CNC(=O)OCc4cccc(-c5ccccc5)c4)cc3C2=O)C(=O)N1` (stereo not shown) [Compound 6, [1,1′-biphenyl]-3-ylmethyl ((2-(2,6-dioxopiperidin-3-yl)-3-oxoisoindolin-5-yl)methyl)carbamate], in that order: ≤ 100 nM and 10 to 50%.
Consider `Cc1ccc(-c2cccc(COC(=O)NCc3ccc4c(c3)C(=O)N(C3CCC(=O)NC3=O)C4)c2)cc1` (stereo not shown) [Compound 7, (4′-methyl-[1,1′-biphenyl]-3-yl)methyl ((2-(2,6-dioxopiperidin-3-yl)-3-oxoisoindolin-5-yl)methyl)carbamate], for which the inhibition constant Ki on CRBN-DDB1 was 100 to 1000 nM. Also, the Dmax at CDK2 was 10 to 50%.
For `O=C1CCC(N2Cc3ccc(CNC(=O)OCc4cccc(-c5ccc(Cl)cc5)c4)cc3C2=O)C(=O)N1` (stereo not shown) [Compound 8, (4′-chloro-[1,1′-biphenyl]-3-yl)methyl ((2-(2,6-dioxopiperidin-3-yl)-3-oxoisoindolin-5-yl)methyl)carbamate], in that order: 100 to 1000 nM and 10 to 50%.
For `O=C1CCC(N2Cc3ccc(CNC(=O)OCc4cccc(-c5ccc(C(F)(F)F)cc5)c4)cc3C2=O)C(=O)N1` (stereo not shown) [Compound 9, (4′-(trifluoromethyl)-[1,1′-biphenyl]-3-yl)methyl((2-(2,6-dioxopiperidin-3-yl)-3-oxoisoindolin-5-yl)methyl)carbamate], in that order: 100 to 1000 nM and 50 to 80%.
For `O=C1CCC(N2Cc3ccc(CNC(=O)OCc4cccc(-c5cccc(F)c5)c4)cc3C2=O)C(=O)N1` (stereo not shown) [Compound 10, (3′-fluoro-[1,1′-biphenyl]-3-yl)methyl ((2-(2,6-dioxopiperidin-3-yl)-3-oxoisoindolin-5-yl)methyl)carbamate], in that order: 100 to 1000 nM and 50 to 80%.
In the case of `O=C1CCC(N2Cc3ccc(CNC(=O)OCc4cccc(-c5cccc(C(F)(F)F)c5)c4)cc3C2=O)C(=O)N1` (stereo not shown) [Compound 11, (3′-(trifluoromethyl)-[1,1′-biphenyl]-3-yl)methyl ((2-(2,6-dioxopiperidin-3-yl)-3-oxoisoindolin-5-yl)methyl)carbamate], the inhibition constant (Ki) on CRBN-DDB1 lay in the range of 100 to 1000 nM. This compound also showed a Dmax at CDK2 of 50 to 80%.
